Measured values as given in US20240033328A1, “ACTH IN THE TREATMENT OF AN ADRENOCORTICOTROPIC HORMONE RESPONSIVE PEDIATRIC DISORDER” (Amzell B.V., priority 2020, published 2024).

Experiments:
Type in all cases: in vivo, healthy adult subjects
[1] = Phase 1 single ascending dose study: immunogenicity (antidrug antibodies); conditions: single IM dose; consistent with that observed for H.P. Acthar Gel
Description: (§1) Subjects who met all of the inclusion criteria and none of the exclusion criteria were enrolled in the study. Safety and tolerability were evaluated throughout the study, including all adverse events (AEs); physical examination findings; vital sign measurements; 12-lead electrocardiogram (ECG) findings; standard clinical laboratory measurements (eg, serum chemistry, hematology, and urinalysis); and injection site evaluations. Immunogenicity, as measured by antidrug antibodies (ADA) were evaluated. PD effects were assessed based on levels of cortisol and an adrenal panel of intermediates (dehydroepiandrosterone [DHA], 17-hydroxypregnenolone, and 17 hydroxyprogesterone). Blood samples for measurement of syn-ACTH concentrations were also collected (AMZ002 cohorts only).
Blood samples for evaluation of immunogenicity as measured by ADA were obtained at the Treatment Visit (Day 1) (predose), prior to discharge (Day 3), the Follow-Up Visit (Day 8 [+2 days])/Early Termination Visit, and subsequent visits for collection of ADA (Day 15 [+2 days] and Day 29 [+2 days]).

[2] = Phase 1 single ascending dose study: safety and tolerability; conditions: for safety and tolerability: single IM doses 0.15 mg to 0.75 mg
Description: as §1
Safety parameters included all AEs; physical examination findings; vital sign measurements; 12-lead ECG findings; standard clinical laboratory measurements (eg, serum chemistry, hematology, and urinalysis); and injection site evaluations.

[3] = system: cortisol and an adrenal panel of intermediates (DHA, 17-hydroxypregnenolone, 17-hydroxyprogesterone); assay: Phase 1 single ascending dose study: pharmacodynamics (plasma cortisol and adrenal panel of intermediates)
Description: This was a Phase 1, single-blind, active-controlled, single ascending dose study to compare the PD effects of the investigational drug AMZ002 with those of H.P. Acthar Gel and Cortrosyn in healthy adult subjects. AMZ002 is a sterile solution for IM injection, formulated to contain 0.5 mg/mL ACTH having the sequence […] Phe, 50 mg/mL dextrose, 10 mg/mL sodium carboxymethylcellulose, and 5 mg/mL phenol (pH 6.4). The concentration of 0.5 mg/mL was chosen to reduce possible errors resulting from the preparation of small dose volumes (e.g., less than 0.4 ml).
The study consisted of 8 cohorts, with 8 subjects per cohort (each a single dose): Cortrosyn 0.25 mg; H.P. Acthar Gel 25 U; or, in an ascending dose fashion, AMZ002 0.15, 0.20, 0.25, 0.30, 0.50, or 0.75 mg. The investigational product (AMZ002) and active comparators (Cortrosyn and H.P. Acthar Gel) were administered via intramuscular (IM) injection to the upper arm. The dose of Cortrosyn (0.25 mg by IM administration), the active control, was intended to produce maximal adrenal stimulation. This is the standard dose for adults and children ≥2 years of age recommended in the 2015 Endocrine Society Clinical Practice Guidelines for diagnostic testing of adrenal insufficiency (same dose whether Cortrosyn is administered intravenously or IM). […] Since 25 U of natural ACTH was expected to elicit […] adrenal response, it was considered the most sensitive dose to determine a pharmacodynamically equivalent dose of AMZ002 in this study. Therefore, this study included a cohort of subjects who received a single dose of 25 U H.P. Acthar Gel (representing the target PD for the investigational drug product in this study).
On Day-1, a single standard dose of dexamethasone (1 mg) was administered orally at approximately midnight (8 hours prior to study drug administration the following day) to suppress endogenous adrenocorticotropic hormone (ACTH) production and remove this as a confounding variable in the measurements. […]
For each PD (pharmacodynamics) analyte (plasma cortisol and an adrenal panel of intermediates [DHA, 17-hydroxypregnenolone, and 17-hydroxyprogesterone]), the following parameters were calculated with the actual time points using a noncompartmental method as appropriate: • Maximum observed PD measurement (Emax); • Time to reach maximum observed PD measurement (TEmax); and • Area under the PD effect-time curve from time 0 to the last quantifiable PD measurement (AUEC0−t).
The PD parameters using baseline-corrected PD measurements were calculated similarly, if applicable. […] The following parameters were also calculated using baseline-corrected PD measurements: • Area under the PD effect-time curve that was above baseline (AUECabove B); and • Total time that response was≥baseline (Timeabove B). […]

[4] = Phase 1 single ascending dose study: plasma pharmacokinetics of syn-ACTH
Description: as §1
Blood samples were collected prior to dosing on Day 1; at 5, 15, 30, and 45 minutes postdose; and at 1, 1.5, 2, 2.5, 3, 4, 5, 6, 8, 10, 12, 24, 30, 36, and 48 hours postdose.
The following plasma PK (pharmacokinetics) parameters of syn-ACTH were calculated from individual syn-ACTH concentration data for each cohort: • Maximum plasma concentration (Cmax) if the maximum value occurred at more than 1 time point, Cmax was defined as the first value; • Time to Cmax (Tmax); • Terminal elimination constant rate (λz); • Terminal elimination half-life (t1/2), calculated as ln(2)/λz; • AUC from time 0 to the last quantifiable plasma concentration (Clast) (AUClast); • AUC from time 0 to infinity (AUCinf);
Proportion of AUCinf due to extrapolation (%)(AUCextr), calculated as 100×(Clast/λz)/AUCinf; • Apparent clearance (CL/F); calculated as Dose/AUCinf; and • Apparent volume of distribution (Vz/F), calculated as Dose/[λz×AUCinf].

## H-SYSMEHFRWGKPVGKKRRPVKVYPNGAEDELAEAFPLEF-OH [AMZ002]
[1]
  incidence of antibody formation (minimum of 1 positive postdose result): low
[2]; single IM doses
  deaths, treatment-emergent SAEs, withdrawals due to a TEAE: no deaths, treatment-emergent serious adverse events (SAEs), or withdrawals due to a treatment emergent adverse event (TEAE)
  severity of TEAEs: mild or moderate
[2]
  safety and tolerability: safe and well tolerated
[2]; listed as ACTH having SEQ ID NO:1
  safety and tolerability: generally safe and well tolerated
[3]; highest dose levels within 0.15 to 0.75 mg, single IM dose, FIG. 1
  cortisol response compared to 25 U H.P. Acthar Gel, highest levels: slightly greater and more sustained effects
[3]; lowest dose levels within 0.15 to 0.75 mg, single IM dose, FIG. 1
  cortisol response compared to 25 U H.P. Acthar Gel, lowest levels: maximal effect that is less sustained
[3]; single IM dose 0.15 to 0.75 mg, FIG. 2
  DHA response, lower levels compared to higher levels: maximal effect that is less sustained
[3]; single IM dose 0.15 to 0.75 mg, FIG. 3
  17-hydroxypregnenolone response, lower levels compared to higher levels: maximal effect that is less sustained
[4]; human, plasma, single IM dose, range across dose cohorts, read-out: mean t½
  half-life: 0.911 to 2.59 h
[4]; human, plasma, single IM dose, range across dose cohorts, read-out: median Tmax
  Tmax: 0.08 to 2 h
[4]; single IM dose
  absorption: rapidly absorbed
  time to mean peak plasma concentrations after dosing: ≤ 2 h
[4]; single IM dose 0.15 to 0.75 mg
  increase of exposure with increase in dose: greater than proportional
